Results: US11426397B2, “Piperidinyl- and piperazinyl-substituted heteroaromatic carboxamides as modulators of GPR6” (TAKEDA PHARMACEUTICAL COMPANY LIMITED, priority 2017, dated 2022)
Each block holds one compound with its values, some of them ahead of it.

Target: T1, GPR6 receptor expressed in CHO-K1 cells (Homo sapiens, UniProt P46095)
T1 construct: expressed in transfected cells
Assay: In vitro inhibition of cAMP (EC50), cell-based HTRF cAMP assay
Settings: inhibition of constitutive cAMP activity of GPR6 in CHO-K1 cells
How it was run: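 Cellular cAMP measured by Lance Ultra HTRF (Eu-cAMP tracer, ULight anti-cAMP), with EC50 fitted by four-parameter logistic. Test compounds sat on cells 45 min, 37 °C, in pH 7.4 Ringer's with 300 μM IBMX and 0.5% BSA; GPR6 in CHO-K1 induced beforehand by doxycycline, 2 μg/mL, 20 h.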

T1 sequence (P46095 whole entry): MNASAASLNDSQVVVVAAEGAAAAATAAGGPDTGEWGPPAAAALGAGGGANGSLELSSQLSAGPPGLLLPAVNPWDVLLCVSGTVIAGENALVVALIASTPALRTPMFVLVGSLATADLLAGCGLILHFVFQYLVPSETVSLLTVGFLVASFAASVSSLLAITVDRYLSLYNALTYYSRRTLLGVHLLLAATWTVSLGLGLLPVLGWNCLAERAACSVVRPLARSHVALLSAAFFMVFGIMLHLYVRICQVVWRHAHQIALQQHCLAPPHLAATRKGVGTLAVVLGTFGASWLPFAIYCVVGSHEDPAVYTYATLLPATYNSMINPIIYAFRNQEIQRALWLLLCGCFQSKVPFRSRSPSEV

pEC50, in vitro inhibition of cAMP: 6.2
Structure (SMILES): N#Cc1ccc(N2CCC(Oc3ccc(F)cc3F)CC2)c(NC(=O)c2ccc(O)nn2)c1 [Example 52, N-(5-cyano-2-(4-(2,4-difluorophenoxy)piperidin-1-yl)phenyl)-6-hydroxypyridazine-3-carboxamide]

pEC50, in vitro inhibition of cAMP: 6.2
Structure (SMILES): COc1cnc(C(=O)Nc2cnc(C)cc2N2CCC(Oc3ccc(F)cc3F)CC2)cn1 [Example 142, N-(4-(4-(2,4-difluorophenoxy)piperidin-1-yl)-6-methylpyridin-3-yl)-5-methoxypyrazine-2-carboxamide]

pEC50, in vitro inhibition of cAMP: 7.3
Structure (SMILES): COc1ncc(F)cc1C(=O)Nc1ccc(C#N)nc1N1CCC(Oc2ccc(F)cc2F)CC1 [Example 255, N-(6-cyano-2-(4-(2,4-difluorophenoxy)piperidin-1-yl)pyridin-3-yl)-5-fluoro-2-methoxynicotinamide]

pEC50, in vitro inhibition of cAMP: 7.0
Structure (SMILES): CCNC(=O)c1cc(N2CCC(Oc3ccc(F)cc3F)CC2)c(NC(=O)c2cccnc2OC)cn1 [Example 252, 4-(4-(2,4-difluorophenoxy)piperidin-1-yl)-N-ethyl-5-(2-methoxynicotinamido)picolinamide]

pEC50, in vitro inhibition of cAMP: 7.3
Structure (SMILES): COCc1cnc(N2CCC(Oc3ccc(F)cc3F)CC2)c(NC(=O)c2cccnc2OC)c1 [Example 65, N-(2-(4-(2,4-difluorophenoxy)piperidin-1-yl)-5-(methoxymethyl)pyridin-3-yl)-2-methoxynicotinamide]

pEC50, in vitro inhibition of cAMP: 7.0
Structure (SMILES): Cc1onc(C(=O)Nc2cc(C#N)ccc2N2CCC(Oc3ccc(F)cc3F)CC2)c1C [Example 131, N-(5-cyano-2-(4-(2,4-difluorophenoxy)piperidin-1-yl)phenyl)-4,5-dimethylisoxazole-3-carboxamide]

pEC50, in vitro inhibition of cAMP: 5.0
Structure (SMILES): COc1cccc(OC)c1C(=O)Nc1cc(C#N)ccc1N1CCC(Oc2ccc(F)cc2F)CC1 [Example 238, N-(5-cyano-2-(4-(2,4-difluorophenoxy)piperidin-1-yl)phenyl)-2,6-dimethoxybenzamide]

pEC50, in vitro inhibition of cAMP: 7.1
Structure (SMILES): COc1ccc(CN2CCN(c3ncc(C#N)cc3NC(=O)c3cn(C)nc3OC)CC2)c(F)c1 [Example 152, N-(5-cyano-2-(4-(2-fluoro-4-methoxybenzyl)piperazin-1-yl)pyridin-3-yl)-3-methoxy-1-methyl-1H-pyrazole-4-carboxamide]

pEC50, in vitro inhibition of cAMP: 5.8
Structure (SMILES): COc1c(F)ccc(F)c1C(=O)Nc1cc(C#N)ccc1N1CCC(Oc2ccc(F)cc2F)CC1 [Example 189, N-(5-cyano-2-(4-(2,4-difluorophenoxy)piperidin-1-yl)phenyl)-3,6-difluoro-2-methoxybenzamide]

pEC50, in vitro inhibition of cAMP: 6.8
Structure (SMILES): Cc1cc(C(=O)Nc2cc(C#N)ccc2N2CCC(Oc3ccc(F)cc3F)CC2)c(=O)n(C)c1C [Example 184, N-(5-cyano-2-(4-(2,4-difluorophenoxy)piperidin-1-yl)phenyl)-1,5,6-trimethyl-2-oxo-1,2-dihydropyridine-3-carboxamide]

pEC50, in vitro inhibition of cAMP: <4.5
Structure (SMILES): N#Cc1ccc(N2CCC(Oc3ccc(F)cc3F)CC2)c(NC(=O)c2cnon2)c1 [Example 139, N-(5-cyano-2-(4-(2,4-difluorophenoxy)piperidin-1-yl)phenyl)-1,2,5-oxadiazole-3-carboxamide]

pEC50, in vitro inhibition of cAMP: 6.7
Structure (SMILES): COc1ncccc1C(=O)Nc1cc(C#N)ccc1N1CCN(C(=O)c2ccc(F)cc2)CC1 [Example 286, N-(5-cyano-2-(4-(4-fluorobenzoyl)piperazin-1-yl)phenyl)-2-methoxynicotinamide]

pEC50, in vitro inhibition of cAMP: 7.4
Structure (SMILES): Cn1cccc(C(=O)Nc2cc(C#N)cnc2N2CCC(Oc3ccc(F)cc3F)CC2)c1=O [Example 58, N-(5-cyano-2-(4-(2,4-difluorophenoxy)piperidin-1-yl)pyridin-3-yl)-1-methyl-2-oxo-1,2-dihydropyridine-3-carboxamide]

pEC50, in vitro inhibition of cAMP: 7.0
Structure (SMILES): COc1ccc(OC2CCN(c3ccc(S(C)(=O)=O)cc3NC(=O)c3cn(CF)nc3OC)CC2)c(F)c1 [Example 2, N-(2-(4-(2-fluoro-4-methoxyphenoxy)piperidin-1-yl)-5-(methylsulfonyl)phenyl)-1-(fluoromethyl)-3-methoxy-1H-pyrazole-4-carboxamide]

pEC50, in vitro inhibition of cAMP: 5.8
Structure (SMILES): Cn1cc2ccc(NC(=O)c3ccccn3)c(N3CCC(Oc4ccc(F)cc4F)CC3)c2n1 [Example 149, N-(7-(4-(2,4-difluorophenoxy)piperidin-1-yl)-2-methyl-2H-indazol-6-yl)picolinamide]

pEC50, in vitro inhibition of cAMP: 6.5
Structure (SMILES): COc1c(C(=O)Nc2ccc(C)nc2N2CCN(Cc3ccc(F)cc3)CC2)cnn1C [Example 103, N-(2-(4-(4-fluorobenzyl)piperazin-1-yl)-6-methylpyridin-3-yl)-5-methoxy-1-methyl-1H-pyrazole-4-carboxamide]

pEC50, in vitro inhibition of cAMP: 7.0
Structure (SMILES): COc1ncccc1C(=O)Nc1cc(CNC(C)=O)cnc1N1CCC(Oc2ccc(F)cc2F)CC1 [Example 64, N-(5-(acetamidomethyl)-2-(4-(2,4-difluorophenoxy)piperidin-1-yl)pyridin-3-yl)-2-methoxynicotinamide]

Further lines, the compound ahead of its results:

Structure (SMILES): N#Cc1ccc(N2CCC(Oc3ccc(F)cc3F)CC2)c(NC(=O)c2ccsn2)c1 [Example 128, N-(5-cyano-2-(4-(2,4-difluorophenoxy)piperidin-1-yl)phenyl)isothiazole-3-carboxamide]
pEC50, in vitro inhibition of cAMP: 6.6

Structure (SMILES): N#Cc1ccc(N2CCC(Oc3ccc(F)cc3F)CC2)c(NC(=O)c2cccnn2)c1 [Example 126, N-(5-cyano-2-(4-(2,4-difluorophenoxy)piperidin-1-yl)phenyl)pyridazine-3-carboxamide]
pEC50, in vitro inhibition of cAMP: 6.3

Structure (SMILES): Cn1cccc(C(=O)Nc2cc(S(C)(=O)=O)ccc2N2CCC(Oc3ccc(F)cc3F)CC2)c1=O [Example 3, N-(2-(4-(2,4-difluorophenoxy)piperidin-1-yl)-5-(methylsulfonyl)phenyl)-1-methyl-2-oxo-1,2-dihydropyridine-3-carboxamide]
pEC50, in vitro inhibition of cAMP: 7.5

Structure (SMILES): COc1nc(C)ccc1C(=O)Nc1cnc(C#N)nc1N1CCC(Oc2ccc(F)cc2F)CC1 [Example 280, N-(2-cyano-4-(4-(2,4-difluorophenoxy)piperidin-1-yl)pyrimidin-5-yl)-2-methoxy-6-methylnicotinamide]
pEC50, in vitro inhibition of cAMP: 7.1

Structure (SMILES): COc1ccnc(C(=O)Nc2cc(C#N)ccc2N2CCC(Oc3ccc(F)cc3F)CC2)c1 [Example 109, N-(5-cyano-2-(4-(2,4-difluorophenoxy)piperidin-1-yl)phenyl)-4-methoxypicolinamide]
pEC50, in vitro inhibition of cAMP: 6.7

Structure (SMILES): Cc1nccc(C(=O)Nc2cc(C#N)ccc2N2CCC(Oc3ccc(F)cc3F)CC2)n1 [Example 141, N-(5-cyano-2-(4-(2,4-difluorophenoxy)piperidin-1-yl)phenyl)-2-methylpyrimidine-4-carboxamide]
pEC50, in vitro inhibition of cAMP: 7.2

Structure (SMILES): COc1ccnc(C(=O)Nc2cc(C#N)ccc2N2CCC(Oc3ccc(F)cc3F)CC2)n1 [Example 138, N-(5-cyano-2-(4-(2,4-difluorophenoxy)piperidin-1-yl)phenyl)-4-methoxypyrimidine-2-carboxamide]
pEC50, in vitro inhibition of cAMP: <4.5

Structure (SMILES): COc1ncccc1C(=O)Nc1cc(C(=O)N(C)C)cnc1N1CCC(Oc2ccc(F)cc2F)CC1 [Example 148, 6-(4-(2,4-difluorophenoxy)piperidin-1-yl)-5-(2-methoxynicotinamido)-N,N-dimethylnicotinamide]
pEC50, in vitro inhibition of cAMP: 7.2

Structure (SMILES): COc1nc(C)ccc1C(=O)Nc1cnc(C)nc1N1CCC(Oc2ccc(F)cc2F)CC1 [Example 74, N-(4-(4-(2,4-difluorophenoxy)piperidin-1-yl)-2-methylpyrimidin-5-yl)-2-methoxy-6-methylnicotinamide]
pEC50, in vitro inhibition of cAMP: 7.1

Structure (SMILES): COc1ncccc1C(=O)Nc1cnc(C(=O)N(C)C)nc1N1CCC(Oc2ccc(F)cc2F)CC1 [Example 281, 4-(4-(2,4-difluorophenoxy)piperidin-1-yl)-5-(2-methoxynicotinamido)-N,N-dimethylpyrimidine-2-carboxamide]
pEC50, in vitro inhibition of cAMP: 6.4

Structure (SMILES): COc1nn(C)cc1C(=O)Nc1cc(C#N)cnc1N1CCN(Cc2cc(F)cc(F)c2)CC1 [Example 169, N-(5-cyano-2-(4-(3,5-difluorobenzyl)piperazin-1-yl)pyridin-3-yl)-3-methoxy-1-methyl-1H-pyrazole-4-carboxamide]
pEC50, in vitro inhibition of cAMP: 6.4

Structure (SMILES): COc1nn(C)cc1C(=O)Nc1cc(C#N)cnc1N1CCN(Cc2c(F)cc(F)c(OC)c2F)CC1 [Example 171, N-(5-cyano-2-(4-(2,4,6-trifluoro-3-methoxybenzyl)piperazin-1-yl)pyridin-3-yl)-3-methoxy-1-methyl-1H-pyrazole-4-carboxamide]
pEC50, in vitro inhibition of cAMP: 6.6

Structure (SMILES): N#Cc1ccc(N2CCC(Oc3ccc(F)cc3F)CC2)c(NC(=O)c2cnn3c2OCCC3)c1 [Example 53, N-(5-cyano-2-(4-(2,4-difluorophenoxy)piperidin-1-yl)phenyl)-6,7-dihydro-5H-pyrazolo[5,1-b][1,3]oxazine-3-carboxamide]
pEC50, in vitro inhibition of cAMP: 6.3

Structure (SMILES): COc1cccnc1C(=O)Nc1cc(C#N)ccc1N1CCC(Oc2ccc(F)cc2F)CC1 [Example 26, N-(5-cyano-2-(4-(2,4-difluorophenoxy)piperidin-1-yl)phenyl)-3-methoxypicolinamide]
pEC50, in vitro inhibition of cAMP: 6.4

Structure (SMILES): COc1nn(C)cc1C(=O)Nc1cc(C#N)cnc1N1CCN(Cc2ccc(C#N)cc2)CC1 [Example 153, N-(5-cyano-2-(4-(4-cyanobenzyl)piperazin-1-yl)pyridin-3-yl)-3-methoxy-1-methyl-1H-pyrazole-4-carboxamide]
pEC50, in vitro inhibition of cAMP: 6.4

Structure (SMILES): COc1c(C)cc(Cl)cc1C(=O)Nc1cc(C#N)ccc1N1CCC(Oc2ccc(F)cc2F)CC1 [Example 195]
pEC50, in vitro inhibition of cAMP: 5.9

Structure (SMILES): COc1nn(C)cc1C(=O)Nc1cc(C#N)cnc1N1CCN(Cc2ccc(Cl)cc2F)CC1 [Example 172, N-(2-(4-(4-chloro-2-fluorobenzyl)piperazin-1-yl)-5-cyanopyridin-3-yl)-3-methoxy-1-methyl-1H-pyrazole-4-carboxamide]
pEC50, in vitro inhibition of cAMP: 7.1
